Measurements from patent US20100286284A1, “5-[1'-(DECAHYDRO-7-HYDROXY-1,1,3A,7-TETRAMETHYL-1H-CYCLOPROPA[A]NAPHTHALEN-4-YL)-3'-METHYLBUTYL]-2,4,6-TRIHYDROXY-1,3-BENZENEDICARBOXALDEHYDE AS MEDICAMENTS” (Pierre Fabre Medicament, priority 2008, published 2010).

Experiments:
Assay type in all cases: biochemical
Noradrenaline reuptake = experiment: Reuptake of noradrenaline (NE), [3H]-NE uptake in synapses of rat hypothalamus; conditions: in vitro, 20 min at 37° C.
Experimental: (§1) The uptake tests were carried out in vitro on rat synapses.
The basal activity is determined by incubating the same mixture for 20 min at 37° C. in the presence of 10 μM of protriptyline to block the reuptake.
(§2) Following incubation, the samples are rapidly filtered in vacuo through glass fibre filters (GB/B, Packard) and rinsed twice with ice-cold incubation buffer to eliminate free [^3H]-NE. The filters are dried and the radioactivity retained is measured by a scintillation counter (Topcount, Packard) using a scintillation cocktail (Microscint O, Packard).
(§3) The results are expressed as a percentage inhibition of the reuptake of the neurotransmitter evaluated.

Dopamine reuptake = experiment: Reuptake of dopamine (DA), [3H]-DA uptake in synapses of rat striatum; conditions: in vitro, 15 min at 37° C.
Experimental: as §1
as §2, with “[^3H]-dopamine.” for “[^3H]-NE.”
as §3

Serotonin reuptake = experiment: Reuptake of serotonin (5-HT), [3H]-serotonin uptake in rat brain synapses; conditions: in vitro, synapses from rats' brains, 15 min at 37° C.
Experimental: as §1
The basal activity is determined by incubating the same mixture for 15 min at 37° C. in the presence of 10 μM imipramine to block the reuptake.
as §2, with “[^3H]-serotonin.” for “[^3H]-NE.”
as §3

| Compound | IC50 Noradrenaline reuptake (Noradrenaline reuptake) | IC50 Dopamine reuptake (Dopamine reuptake) | IC50 Serotonin reuptake (Serotonin reuptake) |
| --- | --- | --- | --- |
| CC(C)C[C@@H](c1c(O)c(C=O)c(O)c(C=O)c1O)[C@@H]1CC[C@@](C)(O)[C@@H]2[C@@H]3C(CC[C@]21C)C3(C)C (stereo partly drawn) [Macrocarpal L] | 3.1 μg/ml of solution | 1.0 μg/ml of solution | 1.8 μg/ml of solution |
| Hyperforin | 0.79 μg/ml of solution | 0.23 μg/ml of solution | 0.89 μg/ml of solution |
